# Test: Dissolution / solubility in water over time, crystalline material compared with solid dispersion
# Assay type: physicochemical
smiles,measurement,setting,value
"Cc1ccc(C)c(OCCCC(C)(C)C(=O)O)c1 [Crystalline, 5-(2,5-dimethylphenoxy)-2,2-dimethylpentanoic acid]",solubility at 1 h,Time: One hour,14.7 µg/mL
same,solubility at 20 h,Time: Twenty Hours,21.3 µg/mL
same,solubility at 24 h,Time: Twenty-four Hours,22.4 µg/mL
same,solubility at 2 h,Time: Two Hours,18.4 µg/mL
